Measured values from ChEMBL document CHEMBL1129258, “Synthesis and structure-activity relationships of 2-pyridones: a novel series of potent DNA gyrase inhibitors as antibacterial agents” (J Med Chem, 1996).
Converted amounts (≈) assume the structure as drawn.

Biological target: T1, DNA gyrase (Staphylococcus aureus) (UniProt P0A0K8+P20831)
Assay: In vitro antibacterial activity against gram-positive organism Staphylococcus aureus 1775
Assay type: functional
Conditions: not given

T1 sequence (P0A0K8 2-644 limits assumed): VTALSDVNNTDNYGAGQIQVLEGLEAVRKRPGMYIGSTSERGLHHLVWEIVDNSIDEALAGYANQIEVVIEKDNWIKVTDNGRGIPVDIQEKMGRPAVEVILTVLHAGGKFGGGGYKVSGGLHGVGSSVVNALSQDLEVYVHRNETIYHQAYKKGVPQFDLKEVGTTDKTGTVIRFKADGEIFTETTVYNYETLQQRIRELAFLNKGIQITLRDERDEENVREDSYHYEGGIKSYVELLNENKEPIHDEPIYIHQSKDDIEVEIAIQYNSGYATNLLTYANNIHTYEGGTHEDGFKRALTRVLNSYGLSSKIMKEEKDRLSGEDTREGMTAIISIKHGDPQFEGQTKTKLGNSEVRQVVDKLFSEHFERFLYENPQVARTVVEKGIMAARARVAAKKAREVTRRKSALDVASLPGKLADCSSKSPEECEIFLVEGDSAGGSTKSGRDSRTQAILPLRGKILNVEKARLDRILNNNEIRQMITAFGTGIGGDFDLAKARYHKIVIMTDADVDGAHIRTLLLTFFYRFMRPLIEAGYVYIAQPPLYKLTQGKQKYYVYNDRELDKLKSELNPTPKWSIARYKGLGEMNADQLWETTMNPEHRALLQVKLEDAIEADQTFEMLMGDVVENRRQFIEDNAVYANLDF
T1 sequence (P20831 whole entry partner): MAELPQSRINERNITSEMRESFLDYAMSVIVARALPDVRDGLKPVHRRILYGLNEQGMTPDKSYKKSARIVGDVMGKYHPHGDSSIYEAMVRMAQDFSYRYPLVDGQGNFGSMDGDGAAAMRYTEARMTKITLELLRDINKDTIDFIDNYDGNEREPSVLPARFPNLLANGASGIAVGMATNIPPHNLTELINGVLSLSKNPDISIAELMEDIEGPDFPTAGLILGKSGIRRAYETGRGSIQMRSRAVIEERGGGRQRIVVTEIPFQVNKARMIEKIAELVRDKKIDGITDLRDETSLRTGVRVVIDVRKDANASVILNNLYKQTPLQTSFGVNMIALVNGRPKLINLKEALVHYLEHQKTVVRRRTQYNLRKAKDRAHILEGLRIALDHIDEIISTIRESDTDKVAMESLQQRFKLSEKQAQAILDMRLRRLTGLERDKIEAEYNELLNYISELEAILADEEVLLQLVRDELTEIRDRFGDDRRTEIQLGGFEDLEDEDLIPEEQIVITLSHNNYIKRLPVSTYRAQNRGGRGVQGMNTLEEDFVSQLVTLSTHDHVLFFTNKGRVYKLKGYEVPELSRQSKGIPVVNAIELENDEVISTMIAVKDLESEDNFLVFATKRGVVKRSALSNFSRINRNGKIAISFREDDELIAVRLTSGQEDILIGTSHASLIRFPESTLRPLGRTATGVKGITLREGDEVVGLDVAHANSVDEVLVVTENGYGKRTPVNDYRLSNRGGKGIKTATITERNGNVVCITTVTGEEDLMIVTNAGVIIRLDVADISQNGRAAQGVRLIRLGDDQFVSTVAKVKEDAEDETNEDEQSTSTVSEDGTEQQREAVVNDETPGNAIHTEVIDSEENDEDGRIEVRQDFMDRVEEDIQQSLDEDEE

Row | SMILES | MIC [µg/mL]
1 | NC1CCN(c2nc3c(-c4c(F)c(F)c(F)c(F)c4F)cc(C(=O)O)c(=O)n3cc2F)C1 (centres undefined) | > 100
2 | Cc1c(N2CC(N)C2)c(F)cn2c(=O)c(C(=O)O)cc(C3CC3)c12 | 6.2 (≈ 18.7 µM)
3 | CN1CCN(c2nc3c(-c4ccc(F)cc4)cc(C(=O)O)c(=O)n3cc2F)CC1 | 25 (≈ 62.4 µM)
4 | COc1ccc(-c2cc(C(=O)O)c(=O)n3cc(F)c(N4CCC(N)C4)nc23)cc1 (centres undefined) | 100 (≈ 251 µM)
5 | Cc1c(N2CCCNCC2)c(F)cn2c(=O)c(C(=O)O)cc(C3CC3)c12 | 25 (≈ 69.6 µM)
6 | C[C@H]1C[C@H](N)CN1c1nc2c(-c3ccc(F)cc3F)cc(C(=O)O)c(=O)n2cc1F | 50 (≈ 120 µM)

Biological target: T2, DNA gyrase (Escherichia coli) (UniProt P0AES6+P0AES4)
Conditions: Escherichia coli K-12
Description: Concentration which causes 50% of the gyrase (Escherichia coli H560)-mediated maximal DNA cleavage.

Row | SMILES | CC50 [µg/mL]
7 | NC1CCN(c2nc3c(-c4c(F)c(F)c(F)c(F)c4F)cc(C(=O)O)c(=O)n3cc2F)C1 (centres undefined) | 12.5 (≈ 27.3 µM)
8 | Cc1c(N2CC(N)C2)c(F)cn2c(=O)c(C(=O)O)cc(C3CC3)c12 | 1.5 (≈ 4.53 µM)
9 | C[C@H]1C[C@H](N)CN1c1nc2c(-c3ccc(F)cc3F)cc(C(=O)O)c(=O)n2cc1F | 0.5 (≈ 1.2 µM)

Test system: Streptococcus pyogenes
Assay: In vitro antibacterial activity against gram-positive organism Streptococcus pyogenes EES61
Assay type: functional
Conditions: Streptococcus pyogenes; read-out: MIC

Row | SMILES | MIC [µg/mL]
10 | NC1CCN(c2nc3c(-c4c(F)c(F)c(F)c(F)c4F)cc(C(=O)O)c(=O)n3cc2F)C1 (centres undefined) | > 100
11 | Cc1c(N2CC(N)C2)c(F)cn2c(=O)c(C(=O)O)cc(C3CC3)c12 | 0.39 (≈ 1.18 µM)
12 | CN1CCN(c2nc3c(-c4ccc(F)cc4)cc(C(=O)O)c(=O)n3cc2F)CC1 | 6.2 (≈ 15.5 µM)
13 | COc1ccc(-c2cc(C(=O)O)c(=O)n3cc(F)c(N4CCC(N)C4)nc23)cc1 (centres undefined) | 25 (≈ 62.8 µM)
14 | Cc1c(N2CCCNCC2)c(F)cn2c(=O)c(C(=O)O)cc(C3CC3)c12 | 0.39 (≈ 1.09 µM)
15 | C[C@H]1C[C@H](N)CN1c1nc2c(-c3ccc(F)cc3F)cc(C(=O)O)c(=O)n2cc1F | 0.78 (≈ 1.86 µM)

Biological target: T2, DNA gyrase (Escherichia coli)
Assay: In vitro antibacterial activity against gram-negative organism Prov. stuartii CMX-640
Assay type: functional
Conditions: Providencia stuartii

Row | SMILES | MIC
16 | NC1CCN(c2nc3c(-c4c(F)c(F)c(F)c(F)c4F)cc(C(=O)O)c(=O)n3cc2F)C1 (centres undefined) | > 100 pug ml-1
17 | Cc1c(N2CC(N)C2)c(F)cn2c(=O)c(C(=O)O)cc(C3CC3)c12 | 1.56 µg/mL (≈ 4.71 µM)
18 | CN1CCN(c2nc3c(-c4ccc(F)cc4)cc(C(=O)O)c(=O)n3cc2F)CC1 | 25 µg/mL (≈ 62.4 µM)
19 | COc1ccc(-c2cc(C(=O)O)c(=O)n3cc(F)c(N4CCC(N)C4)nc23)cc1 (centres undefined) | > 100 µg/mL
20 | Cc1c(N2CCCNCC2)c(F)cn2c(=O)c(C(=O)O)cc(C3CC3)c12 | 3.1 µg/mL (≈ 8.63 µM)
21 | C[C@H]1C[C@H](N)CN1c1nc2c(-c3ccc(F)cc3F)cc(C(=O)O)c(=O)n2cc1F | 6.2 µg/mL (≈ 14.8 µM)

Biological target: T2, DNA gyrase (Escherichia coli)
Assay: In vitro antibacterial activity against gram-negative organism Klebsiella pneumoniae ATCC 8045
Assay type: functional
Conditions: not given

Row | SMILES | MIC [µg/mL]
22 | NC1CCN(c2nc3c(-c4c(F)c(F)c(F)c(F)c4F)cc(C(=O)O)c(=O)n3cc2F)C1 (centres undefined) | 3.1 (≈ 6.76 µM)
23 | Cc1c(N2CC(N)C2)c(F)cn2c(=O)c(C(=O)O)cc(C3CC3)c12 | 0.01 (≈ 0.0302 µM)
24 | CN1CCN(c2nc3c(-c4ccc(F)cc4)cc(C(=O)O)c(=O)n3cc2F)CC1 | 0.2 (≈ 0.5 µM)
25 | COc1ccc(-c2cc(C(=O)O)c(=O)n3cc(F)c(N4CCC(N)C4)nc23)cc1 (centres undefined) | 12.5 (≈ 31.4 µM)
26 | Cc1c(N2CCCNCC2)c(F)cn2c(=O)c(C(=O)O)cc(C3CC3)c12 | 0.05 (≈ 0.139 µM)
27 | C[C@H]1C[C@H](N)CN1c1nc2c(-c3ccc(F)cc3F)cc(C(=O)O)c(=O)n2cc1F | 0.01 (≈ 0.0239 µM)

Biological target: T1, DNA gyrase (Staphylococcus aureus)
Assay: In vitro antibacterial activity against gram-positive organism Staphylococcus aureus ATCC 6538p
Assay type: functional
Conditions: not given

Row | SMILES | MIC [µg/mL]
28 | NC1CCN(c2nc3c(-c4c(F)c(F)c(F)c(F)c4F)cc(C(=O)O)c(=O)n3cc2F)C1 (centres undefined) | 50 (≈ 109 µM)
29 | Cc1c(N2CC(N)C2)c(F)cn2c(=O)c(C(=O)O)cc(C3CC3)c12 | 0.1 (≈ 0.302 µM)
30 | CN1CCN(c2nc3c(-c4ccc(F)cc4)cc(C(=O)O)c(=O)n3cc2F)CC1 | 0.39 (≈ 0.974 µM)
31 | COc1ccc(-c2cc(C(=O)O)c(=O)n3cc(F)c(N4CCC(N)C4)nc23)cc1 (centres undefined) | 50 (≈ 126 µM)
32 | Cc1c(N2CCCNCC2)c(F)cn2c(=O)c(C(=O)O)cc(C3CC3)c12 | 0.1 (≈ 0.278 µM)
33 | C[C@H]1C[C@H](N)CN1c1nc2c(-c3ccc(F)cc3F)cc(C(=O)O)c(=O)n2cc1F | 0.1 (≈ 0.239 µM)

Test system: not listed separately
Assay: In vitro antibacterial activity against gram-negative organism Pseudomonas aeruginosa 5007
Assay type: functional
Conditions: not given

Row | SMILES | MIC [pug ml-1]
34 | Cc1c(N2CC(N)C2)c(F)cn2c(=O)c(C(=O)O)cc(C3CC3)c12 | 0.2

Same assay, conditions: Pseudomonas aeruginosa; read-out: MIC

Row | SMILES | MIC [µg/mL]
35 | NC1CCN(c2nc3c(-c4c(F)c(F)c(F)c(F)c4F)cc(C(=O)O)c(=O)n3cc2F)C1 (centres undefined) | 50 (≈ 109 µM)
36 | CN1CCN(c2nc3c(-c4ccc(F)cc4)cc(C(=O)O)c(=O)n3cc2F)CC1 | 6.2 (≈ 15.5 µM)
37 | COc1ccc(-c2cc(C(=O)O)c(=O)n3cc(F)c(N4CCC(N)C4)nc23)cc1 (centres undefined) | 100 (≈ 251 µM)
38 | Cc1c(N2CCCNCC2)c(F)cn2c(=O)c(C(=O)O)cc(C3CC3)c12 | 0.78 (≈ 2.17 µM)
39 | C[C@H]1C[C@H](N)CN1c1nc2c(-c3ccc(F)cc3F)cc(C(=O)O)c(=O)n2cc1F | 0.39 (≈ 0.932 µM)

Biological target: T2, DNA gyrase (Escherichia coli)
Assay: In vitro antibacterial activity against gram-positive organism Streptococcus bovis A-5169
Assay type: functional
Conditions: Streptococcus equinus

Row | SMILES | MIC [µg/mL]
40 | NC1CCN(c2nc3c(-c4c(F)c(F)c(F)c(F)c4F)cc(C(=O)O)c(=O)n3cc2F)C1 (centres undefined) | > 100
41 | Cc1c(N2CC(N)C2)c(F)cn2c(=O)c(C(=O)O)cc(C3CC3)c12 | 0.78 (≈ 2.35 µM)
42 | CN1CCN(c2nc3c(-c4ccc(F)cc4)cc(C(=O)O)c(=O)n3cc2F)CC1 | 25 (≈ 62.4 µM)
43 | COc1ccc(-c2cc(C(=O)O)c(=O)n3cc(F)c(N4CCC(N)C4)nc23)cc1 (centres undefined) | 25 (≈ 62.8 µM)
44 | Cc1c(N2CCCNCC2)c(F)cn2c(=O)c(C(=O)O)cc(C3CC3)c12 | 0.78 (≈ 2.17 µM)
45 | C[C@H]1C[C@H](N)CN1c1nc2c(-c3ccc(F)cc3F)cc(C(=O)O)c(=O)n2cc1F | 1.56 (≈ 3.73 µM)

Biological target: T1, DNA gyrase (Staphylococcus aureus)
Assay: In vitro antibacterial activity against gram-positive organism Staphylococcus aureus NCTC-10649M
Assay type: functional
Conditions: not given

Row | SMILES | MIC [µg/mL]
46 | NC1CCN(c2nc3c(-c4c(F)c(F)c(F)c(F)c4F)cc(C(=O)O)c(=O)n3cc2F)C1 (centres undefined) | 50 (≈ 109 µM)
47 | Cc1c(N2CC(N)C2)c(F)cn2c(=O)c(C(=O)O)cc(C3CC3)c12 | 0.05 (≈ 0.151 µM)
48 | CN1CCN(c2nc3c(-c4ccc(F)cc4)cc(C(=O)O)c(=O)n3cc2F)CC1 | 0.39 (≈ 0.974 µM)
49 | COc1ccc(-c2cc(C(=O)O)c(=O)n3cc(F)c(N4CCC(N)C4)nc23)cc1 (centres undefined) | 50 (≈ 126 µM)
50 | Cc1c(N2CCCNCC2)c(F)cn2c(=O)c(C(=O)O)cc(C3CC3)c12 | 0.2 (≈ 0.556 µM)
51 | C[C@H]1C[C@H](N)CN1c1nc2c(-c3ccc(F)cc3F)cc(C(=O)O)c(=O)n2cc1F | 0.1 (≈ 0.239 µM)

Biological target: T2, DNA gyrase (Escherichia coli)
Assay: In vitro antibacterial activity against gram-positive organism Enterococcus faecium ATCC 8043
Assay type: functional
Conditions: not given

Row | SMILES | MIC [µg/mL]
52 | NC1CCN(c2nc3c(-c4c(F)c(F)c(F)c(F)c4F)cc(C(=O)O)c(=O)n3cc2F)C1 (centres undefined) | > 100
53 | Cc1c(N2CC(N)C2)c(F)cn2c(=O)c(C(=O)O)cc(C3CC3)c12 | 0.2 (≈ 0.604 µM)
54 | CN1CCN(c2nc3c(-c4ccc(F)cc4)cc(C(=O)O)c(=O)n3cc2F)CC1 | 25 (≈ 62.4 µM)
55 | COc1ccc(-c2cc(C(=O)O)c(=O)n3cc(F)c(N4CCC(N)C4)nc23)cc1 (centres undefined) | 25 (≈ 62.8 µM)
56 | Cc1c(N2CCCNCC2)c(F)cn2c(=O)c(C(=O)O)cc(C3CC3)c12 | 0.2 (≈ 0.556 µM)
57 | C[C@H]1C[C@H](N)CN1c1nc2c(-c3ccc(F)cc3F)cc(C(=O)O)c(=O)n2cc1F | 0.78 (≈ 1.86 µM)

Biological target: T2, DNA gyrase (Escherichia coli)
Assay: In vitro antibacterial activity against gram-negative organism […] ATCC 13048
Assay type: functional
Conditions: Enterobacter aerogenes

Row | SMILES | MIC [µg/mL]
58 | NC1CCN(c2nc3c(-c4c(F)c(F)c(F)c(F)c4F)cc(C(=O)O)c(=O)n3cc2F)C1 (centres undefined) | 6.2 (≈ 13.5 µM)
59 | Cc1c(N2CC(N)C2)c(F)cn2c(=O)c(C(=O)O)cc(C3CC3)c12 | 0.05 (≈ 0.151 µM)
60 | CN1CCN(c2nc3c(-c4ccc(F)cc4)cc(C(=O)O)c(=O)n3cc2F)CC1 | 0.78 (≈ 1.95 µM)
61 | COc1ccc(-c2cc(C(=O)O)c(=O)n3cc(F)c(N4CCC(N)C4)nc23)cc1 (centres undefined) | 25 (≈ 62.8 µM)
62 | Cc1c(N2CCCNCC2)c(F)cn2c(=O)c(C(=O)O)cc(C3CC3)c12 | 0.1 (≈ 0.278 µM)
63 | C[C@H]1C[C@H](N)CN1c1nc2c(-c3ccc(F)cc3F)cc(C(=O)O)c(=O)n2cc1F | 0.1 (≈ 0.239 µM)

Test system: not listed separately
Assay: In vitro antibacterial activity against gram-negative organism Pseudomonas aeruginosa DPHD-2862
Assay type: functional
Conditions: Pseudomonas aeruginosa; read-out: MIC

Row | SMILES | MIC [µg/mL]
64 | NC1CCN(c2nc3c(-c4c(F)c(F)c(F)c(F)c4F)cc(C(=O)O)c(=O)n3cc2F)C1 (centres undefined) | > 100
65 | Cc1c(N2CC(N)C2)c(F)cn2c(=O)c(C(=O)O)cc(C3CC3)c12 | 12.5 (≈ 37.7 µM)
66 | COc1ccc(-c2cc(C(=O)O)c(=O)n3cc(F)c(N4CCC(N)C4)nc23)cc1 (centres undefined) | 50 (≈ 126 µM)
67 | Cc1c(N2CCCNCC2)c(F)cn2c(=O)c(C(=O)O)cc(C3CC3)c12 | 6.2 (≈ 17.3 µM)
68 | C[C@H]1C[C@H](N)CN1c1nc2c(-c3ccc(F)cc3F)cc(C(=O)O)c(=O)n2cc1F | 50 (≈ 120 µM)

Biological target: T2, DNA gyrase (Escherichia coli)
Assay: In vitro antibacterial against gram-negative organism Escherichia coli JUHL
Assay type: functional
Conditions: Escherichia coli K-12

Row | SMILES | MIC [µg/mL]
69 | NC1CCN(c2nc3c(-c4c(F)c(F)c(F)c(F)c4F)cc(C(=O)O)c(=O)n3cc2F)C1 (centres undefined) | 6.2 (≈ 13.5 µM)
70 | Cc1c(N2CC(N)C2)c(F)cn2c(=O)c(C(=O)O)cc(C3CC3)c12 | 0.01 (≈ 0.0302 µM)
71 | CN1CCN(c2nc3c(-c4ccc(F)cc4)cc(C(=O)O)c(=O)n3cc2F)CC1 | 0.39 (≈ 0.974 µM)
72 | COc1ccc(-c2cc(C(=O)O)c(=O)n3cc(F)c(N4CCC(N)C4)nc23)cc1 (centres undefined) | 25 (≈ 62.8 µM)
73 | Cc1c(N2CCCNCC2)c(F)cn2c(=O)c(C(=O)O)cc(C3CC3)c12 | 0.02 (≈ 0.0556 µM)
74 | C[C@H]1C[C@H](N)CN1c1nc2c(-c3ccc(F)cc3F)cc(C(=O)O)c(=O)n2cc1F | 0.02 (≈ 0.0478 µM)
